Results on 15 compounds are retold here after PMC7664408, “Biaryl Sulfonamides Based on the 2-Azabicycloalkane Skeleton—Synthesis and Antiproliferative Activity” (Materials, 2020).

For one series, the system named is LoVo. The experiment in a line: In vitro antiproliferative assay, SRB, 72 h. It counts as cell-based, human. The note with it: colon adenocarcinoma LoVo, n.a. = not active in the range of concentrations used (up to 100 µM), read-out: IC50 [µM] ± SD [n = 5] LoVo. An excerpt:
(§1) The following human cancer cell lines, representing the most common types of cancer, were chosen for evaluation of the antiproliferative activity of the prepared sulfonamides: lung cancer (A549), breast cancer (MCF-7), colon adenocarcinoma (LoVo), and biphenotypic B cell myelomonocytic leukemia (MV4-11). As a reference, the normal mouse fibroblasts cell line (BALB/3T3) was applied. A549, LoVo and BALB/3T3 cell lines were purchased from the ATCC (American Type Culture Collection, Rockville, MD, USA), MCF-7 cell line—from EACC (The European Collection of Cell Cultures), and MV4-11 cell line was obtained from DSMZ (Leibniz Institute—German Collection of Microorganisms and Cell Culture, Braunschweig, Germany). All these lines were maintained at the Hirszfeld Institute of Immunology and Experimental Therapy (IIET) in Wrocław, Poland.
(§2) We used the following culture media: for A549 cell line: the mixture of RPMI 1640 and OptiMEM (1:1) medium (both from Gibco, Scotland, UK)), 2mM L-glutamine, 1mM sodium pyruvate (Sigma-Aldrich Chemie GmbH, Steinheim, Germany) and 5% fetal bovine serum (FBS; HyClone Laboratories, Logan, UT, USA). MCF-7 cells were cultured in Eagle’s medium (IIET, PAS, Wroclaw, Poland), 2mM L-glutamine and 10% of FBS supplemented with 0.8 mg/L of insulin (Sigma-Aldrich Chemie GmbH, Steinheim, Germany). For LoVo cell line, F12K medium was applied (American Type Culture Collection, Rockville, MD, USA-ATCC), with 5% FBS (HyClone Laboratories, Logan, UT, USA). MV4-11 cells were cultured in RPMI 1640/GlutaMax I medium (Gibco, Thermo Fisher Scientific, Leicestershire, UK) with 1 mM sodium pyruvate (Sigma-Aldrich Chemie GmbH, Steinheim, Germany) and 10% FBS (HyClone Laboratories). In case of BALB/3T3 cells, DMEM (Gibco, Thermo Fisher Scientific) supplemented with 2 mM L-glutamine and 5% FBS was used. Antibiotics: 100 U/mL penicillin (Polfa Tarchomin SA, Warsaw, Poland) and 100 µg/mL streptomycin (Sigma-Aldrich Chemie GmbH, Steinheim, Germany) were present in all the culture media; cells were cultured in a humid atmosphere containing 5% CO2 at 37 °C.
(§3) Twenty-four hours before addition of the tested compounds, each cell line was seeded in 96-well plastic plates (Sarstedt, Numbrecht, Germany) in an appropriate medium at 10^4 cells/well density, except MCF7 cell line: 0.75 × 10^4/well, and A549 cell line: 0.25 × 10^4/well. The studied cell lines were subjected to each of the tested sulfonamides at 4 different concentrations in the range of 100–0.1 µg/mL for 72 h. Cisplatin (Teva Pharmaceuticals, Poland) was used as a reference compound, and DMSO (Sigma-Aldrich Chemie GmbH, Steinheim, Germany) served as a solvent control at concentrations equivalent to these applied in the solutions of the tested sulfonamides. MTT assay was performed for leukemic cells, while sulforhodamine B assay (SRB) for the adherent cells.
(§4) After 72 h of incubation, cells were fixed in situ by gently adding of 50 µL per well of ice-cold 50% TCA (trichloroacetic acid, POCh, Gliwice, Poland) and were incubated at 4 °C for one hour. Each well was then washed five times with water, followed by addition of 50 µL of 0.4% solution of SRB (sulforhodamine B, Sigma-Aldrich Chemie GmbH, Steinheim, Germany) in 1% acetic acid (POCh, Gliwice, Poland), and plates were again incubated at RT for 0.5 h. Plates were washed five times with 1% acetic acid to remove the unbound dye. The stained cells were treated with 10 mM TRIS (Tris base, Sigma-Aldrich, Chemie GmbH, Steinheim, Germany). Absorbance at 540 nm in each well was read with Elisa plate reader (BioTek Synergy H4, Swindon, UK) using the Gen5 software.
(§5) The results are shown as average IC50 values (concentration of the compound causing inhibition of cell proliferation by 50%) ± standard deviation. IC50 values were determined using the Prolab-3 system based on Cheburator 0.4, a software developed by Nevozhay. At each concentration, sulfonamides were tested in triplicates in a single experiment. […]

Another series concerns MV4-11. The experiment in a line: In vitro antiproliferative assay, MTT, 72 h. It counts as cell-based, human. The note with it: biphenotypic B cell myelomonocytic leukemia MV4-11, 72 h, n.a. = not active in the range of concentrations used (up to 100 µM), read-out: IC50 [µM] ± SD [n = 5] MV4-11.
A further series has as its system A549. Put plainly: In vitro antiproliferative assay, SRB, 72 h. It counts as cell-based, human. The note with it: lung cancer A549, 72 h, n.a. = not active in the range of concentrations used (up to 100 µM), read-out: IC50 [µM] ± SD [n = 5] A549.
Source text: as §1, §2, §3, §4, §5

In a further series the test system is MCF-7. The experiment in a line: In vitro antiproliferative assay, SRB, 72 h. Type of series: cell-based, human. The note with it: n.a. = not active in the range of concentrations used (up to 100 µM), read-out: IC50 [µM] ± SD [n = 5] MCF-7.
Source text: as §1, §2, §3, §4, §5

A further series has as its system BALB/3T3. Put plainly: In vitro antiproliferative assay on normal fibroblasts, SRB, 72 h. Type of series: cell-based, mouse. The settings on record: for selectivity: IC50 value for BALB/3T3 line times bigger than for leukemia cells MV4-11: IC50 BALB/3T3 versus IC50 MV4-11; for IC50: normal mouse fibroblasts BALB/3T3, 72 h, SRB, n.a. = not active in the range of concentrations used (up to 100 µM), read-out: IC50 [µM] ± SD [n = 5] Balb/3T3.
Source text: as §1, §2, §3, §4, §5

The mark [1] stands for this setting: Homo sapiens, MCF7, breast cancer MCF-7, 72 h.

Like-named read-outs stand apart in the source and are kept apart here.

Take `C[C@@H](c1ccccc1)N1[C@H]2CC[C@H](C2)[C@H]1CNS(=O)(=O)c1ccc(F)cc1` [Compound 11d, 4-fluoro-N-(((1S,3S,4R)-2-((S)-1-phenylethyl)-2-azabicyclo[2.2.1]heptan-3-yl)methyl)benzenesulfonamide]: the melting point (in general, the temperature, or range, at which the solid turns liquid) was in the range of 105 to 107 °C. In addition, the IC50 in the series on LoVo (Homo sapiens) turned out to be 92.2 ± 12.7 µM. In addition, in the series on MV4-11 (Homo sapiens), the IC50 was 43.6 ± 14.5 µM.
For `O=S(=O)(NC[C@H]1N[C@H]2CC[C@@H]1C2)c1ccc(-c2ccc(F)cc2)cc1` [Compound 10i, N-((1S,3S,4R)-2-azabicyclo[2.2.1]heptan-3-ylmethyl)-4’-fluoro-[1,1’-biphenyl]-4-sulfonamide], the melting point was determined as 155 °C. The IC50 in the series on A549 (Homo sapiens) came to 32.9 ± 1.36 µM. For the same compound, in the series on LoVo (Homo sapiens), the IC50 came to 21.7 ± 3.52 µM. Besides, in the series on MCF-7 (setting [1]), the IC50 is 18 ± 2.82 µM. In the series with BALB/3T3, the “selectivity: IC50 value for BALB/3T3 line times bigger than for leukemia cells MV4-11” value (“selectivity: IC50 value” below) is around 4 times and the IC50 is 24.4 ± 2.75 µM. In addition, in the series with MV4-11 (Homo sapiens), the IC50 turned out to be 8.28 ± 2.21 µM.
`C[C@@H](c1ccccc1)N1C[C@@H](CNS(=O)(=O)c2ccc(-c3ccc(F)cc3)cc2)[C@@H]2CC[C@H]1C2` [Compound 12i, 4’-fluoro-N-(((1S,4S,5R)-2-((S)-1-phenylethyl)-2-azabicyclo[3.2.1]octan-4-yl)methyl)-[1,1’-biphenyl]-4-sulfonamide] had a melting point of 128 to 129 °C. In addition, in the series with A549 (Homo sapiens), the IC50 came out at 16.4 ± 1.57 µM. In the series on LoVo (Homo sapiens), the IC50 is 15.1 ± 4.94 µM. The IC50 in the series on MCF-7 (setting [1]) was determined as 12.8 ± 4.03 µM. Also, the IC50 with BALB/3T3 stood at 18.4 ± 8.39 µM. For the same compound, in the series with MV4-11 (Homo sapiens), the IC50 came out at 15.1 ± 3.16 µM.
In turn, `C[C@@H](c1ccccc1)N1C(CN(C[C@H]2[C@@H]3CC[C@@H](C3)N2[C@@H](C)c2ccccc2)S(=O)(=O)c2ccc(-c3ccc(F)cc3)cc2)[C@@H]2CC[C@H]1C2` (stereo partly drawn) [Compound 13i, 4’-fluoro-N-(((1S,3R,4R)-2-((S)-1-phenylethyl)-2-azabicyclo[2.2.1]heptan-3-yl)methyl)-N-(((1S,4R)-2-((S)-1-phenylethyl)-2-azabicyclo[2.2.1]heptan-3-yl)methyl)-[1,1’-biphenyl]-4-sulfonamide] had a melting point of 96 to 98 °C.
The compound `C[C@@H](c1ccccc1)N1[C@H]2CC[C@H](C2)[C@@H]1CNS(=O)(=O)c1ccccc1` [Compound 11b, (1S,3R,4R)-N-((2-((S)-1-phenylethyl)-2-azabicyclo[2.2.1]heptan-3-yl)methyl) benzenesulfonamide] gave a melting point of 107 to 109 °C. In addition, the IC50 in the series on MV4-11 (Homo sapiens) turned out to be 52.7 ± 14 µM.
`Cc1ccc(S(=O)(=O)NC[C@H]2[C@@H]3CC[C@@H](C3)N2[C@@H](C)c2ccccc2)cc1` [Compound 11c, (1S,3R,4R)-4-methyl-N-((2-((S)-1-phenylethyl)-2-azabicyclo[2.2.1]heptan-3-yl)methyl) benzenesulfonamide] showed a melting point of 124 to 127 °C. Moreover, the IC50 in the series with LoVo (Homo sapiens) was 83.2 ± 11.8 µM. Also, the IC50 in the series with MV4-11 (Homo sapiens) was found to be 29.6 ± 12.9 µM.
With `CC(c1ccccc1)N1C2CCC(C2)C1CNS(=O)(=O)c1ccc(-c2ccc(F)cc2)cc1` (centres unmarked) [Compound 11i], the IC50 in the series with A549 (Homo sapiens) worked out at 2.98 ± 1.38 µM; with LoVo (Homo sapiens) it was 5.29 ± 2.56 µM; in the series with MCF-7 (setting [1]) it was 10.3 ± 2.71 µM; with BALB/3T3 it was 13.1 ± 2.68 µM; in the series on MV4-11 (Homo sapiens), 11.2 ± 2.14 µM.
For `CC(c1ccccc1)N1CC(NS(=O)(=O)c2ccc(-c3ccccc3)cc2)C2CCC1C2` (centres unmarked) [Compound 9f], in that order: 13.6 ± 1.1 µM, 14.5 ± 2.54 µM, 18.8 ± 3.25 µM, 14.1 ± 2.63 µM and 8.76 ± 3.45 µM.
Take `COc1ccc(-c2ccc(S(=O)(=O)NC3CN(C(C)c4ccccc4)C4CCC3C4)cc2)cc1` (centres unmarked) [Compound 9h]: the IC50 is 9.13 ± 1.05 µM with A549 (Homo sapiens); 11.8 ± 2.46 µM in the series on LoVo (Homo sapiens); 16.3 ± 2.11 µM in the series on MCF-7 (setting [1]); 15.1 ± 2.11 µM with BALB/3T3; 3.92 ± 1.74 µM with MV4-11 (Homo sapiens). The “selectivity: IC50 value” value in the series on BALB/3T3 was around 3 times.
As for `COc1ccc(-c2ccc(S(=O)(=O)NCC3C4CCC(C4)N3C(C)c3ccccc3)cc2)cc1` (centres unmarked) [Compound 11h], the IC50 is 12.8 ± 1.38 µM with A549 (Homo sapiens); 15.8 ± 2.26 µM with LoVo (Homo sapiens); 22.4 ± 4.31 µM with MCF-7 (setting [1]); 12.4 ± 1.82 µM in the series on BALB/3T3; 13.8 ± 2.64 µM in the series with MV4-11 (Homo sapiens).
Taken in the same sequence, the figures for `CC(c1ccccc1)N1C2CCC(C2)C1CNS(=O)(=O)c1ccc(C(F)(F)F)cc1` (centres unmarked) [Compound 11e] were 38.4 ± 2.61 µM, 33.7 ± 5.13 µM, 39.1 ± 7.14 µM, 37.5 ± 7.8 µM and 16.1 ± 4.95 µM.
For the compound `N.N.[Cl][Pt][Cl]` [cisplatin, reference compound], the IC50 in the series on A549 amounted to 3.02 ± 1.79 µM; with LoVo, 11.8 ± 3.87 µM; with MCF-7 (breast cancer MCF-7, 72 h) it was 10.3 ± 6.23 µM; with BALB/3T3, 10.7 ± 3.3 µM; in the series on MV4-11 it was 1.78 ± 1.22 µM.
Regarding `CC(c1ccccc1)N1C2CCC(C2)C1CNS(=O)(=O)c1ccc(-c2ccccc2)cc1` (centres unmarked) [Compound 11f], the IC50 stood at 7.66 ± 2.08 µM in the series with A549 (Homo sapiens); 19.3 ± 6.71 µM in the series with LoVo (Homo sapiens); 54 ± 16 µM with MCF-7 (setting [1]); 38.8 ± 7.88 µM in the series with BALB/3T3; 3.09 ± 1.56 µM in the series on MV4-11 (Homo sapiens). Moreover, the “selectivity: IC50 value” value with BALB/3T3 is reported as above 10 times.
For the compound `Cc1ccc(-c2ccc(S(=O)(=O)NCC3C4CCC(C4)N3C(C)c3ccccc3)cc2)cc1` (centres unmarked) [Compound 11g], the IC50 was found to be 14.1 ± 4.77 µM in the series with A549 (Homo sapiens); 7.23 ± 16.2 µM in the series on LoVo (Homo sapiens); 33 ± 18.9 µM in the series with MCF-7 (setting [1]); 45.3 ± 17.3 µM in the series with BALB/3T3; 4.26 ± 3.97 µM in the series on MV4-11 (Homo sapiens). Moreover, in the series with BALB/3T3, the “selectivity: IC50 value” value is on record as above 10 times.
Take `CC(c1ccccc1)N1C2CCC(C2)C1CN(CC1C2CCC(C2)N1C(C)c1ccccc1)S(=O)(=O)c1ccc(-c2ccccc2)cc1` (centres unmarked) [Compound 13f]: the results for the IC50 with A549 (Homo sapiens), in the series with LoVo (Homo sapiens) and with MV4-11 (Homo sapiens) were 84.4 ± 26.1 µM, 44.5 ± 10.9 µM and 56.1 ± 26.9 µM, respectively.
